Laboratory results: patent US20250034216A1, “STEREOSELECTIVE COVALENT LIGANDS FOR ONCOGENIC AND IMMUNOLOGICAL PROTEINS” (The Scripps Research Institute, priority 2021, published 2025)

What was measured:
APOOL_C79 = biological target: T1, APOOL_C79 (Homo sapiens, UniProt Q6UXV4); assay: IA-DTB cysteine engagement; assay type: binding; settings: 22Rv1 cells, 20 μM probe, 1 h, relative to DMSO
T1 construct: endogenous in cells; host or cells: 22Rv1
T1 sequence (Q6UXV4 28-268): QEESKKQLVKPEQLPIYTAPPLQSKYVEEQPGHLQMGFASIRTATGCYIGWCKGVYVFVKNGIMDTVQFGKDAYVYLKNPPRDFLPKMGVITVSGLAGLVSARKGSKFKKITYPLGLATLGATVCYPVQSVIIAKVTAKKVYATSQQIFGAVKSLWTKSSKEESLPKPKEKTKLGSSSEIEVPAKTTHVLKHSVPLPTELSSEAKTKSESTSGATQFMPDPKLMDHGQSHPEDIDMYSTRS
Outline: (§1)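 Probe-exposed cells were lysed, IA-DTB-labeled, trypsinized and streptavidin-enriched. Multiplexed TMT quantitation gave engagement ratios versus DMSO, with non-tryptic peptides excluded and intensities normalized to median summed signal.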

ZFAT_C392 = biological target: T2, ZFAT_C392 (Homo sapiens, UniProt Q9P243); assay: IA-DTB cysteine engagement; assay type: binding; settings: 22Rv1 cells, 20 μM probe, 1 h, relative to DMSO
T2 construct: endogenous in cells; host or cells: 22Rv1
T2 sequence (Q9P243 1-1243): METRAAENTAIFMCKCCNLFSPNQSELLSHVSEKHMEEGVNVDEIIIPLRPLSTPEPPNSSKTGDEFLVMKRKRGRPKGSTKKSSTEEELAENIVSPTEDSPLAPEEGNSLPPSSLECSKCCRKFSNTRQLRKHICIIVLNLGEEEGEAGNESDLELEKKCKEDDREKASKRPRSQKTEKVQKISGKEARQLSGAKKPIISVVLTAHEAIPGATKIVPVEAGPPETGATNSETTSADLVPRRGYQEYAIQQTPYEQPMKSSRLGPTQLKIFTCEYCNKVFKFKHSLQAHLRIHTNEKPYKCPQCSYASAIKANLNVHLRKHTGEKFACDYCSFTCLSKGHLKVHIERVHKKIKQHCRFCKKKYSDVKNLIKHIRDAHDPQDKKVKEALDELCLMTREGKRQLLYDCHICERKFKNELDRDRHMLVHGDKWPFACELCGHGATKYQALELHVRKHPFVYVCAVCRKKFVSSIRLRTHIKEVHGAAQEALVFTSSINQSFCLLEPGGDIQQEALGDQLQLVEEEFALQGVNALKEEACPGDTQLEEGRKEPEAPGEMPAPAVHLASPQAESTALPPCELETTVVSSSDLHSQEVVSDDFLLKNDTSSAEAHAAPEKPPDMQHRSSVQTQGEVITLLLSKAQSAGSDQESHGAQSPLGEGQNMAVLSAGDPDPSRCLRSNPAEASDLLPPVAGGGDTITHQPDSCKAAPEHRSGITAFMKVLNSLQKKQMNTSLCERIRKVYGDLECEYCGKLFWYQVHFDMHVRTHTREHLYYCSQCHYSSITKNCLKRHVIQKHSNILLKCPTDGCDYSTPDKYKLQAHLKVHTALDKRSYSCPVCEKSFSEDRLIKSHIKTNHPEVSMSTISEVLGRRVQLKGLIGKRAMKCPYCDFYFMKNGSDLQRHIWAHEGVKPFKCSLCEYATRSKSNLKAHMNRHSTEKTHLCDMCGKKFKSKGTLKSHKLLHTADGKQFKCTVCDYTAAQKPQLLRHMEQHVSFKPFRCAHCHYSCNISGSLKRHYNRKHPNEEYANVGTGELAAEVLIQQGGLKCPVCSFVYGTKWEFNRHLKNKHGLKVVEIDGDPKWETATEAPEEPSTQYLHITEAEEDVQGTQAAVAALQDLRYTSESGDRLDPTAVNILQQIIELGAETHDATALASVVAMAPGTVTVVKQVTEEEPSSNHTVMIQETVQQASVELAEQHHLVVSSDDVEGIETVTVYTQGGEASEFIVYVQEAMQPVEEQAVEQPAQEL
Outline: as §1

| SMILES | % engagement APOOL_C79 (APOOL_C79) | % engagement ZFAT_C392 (ZFAT_C392) |
| --- | --- | --- |
| C=CC(=O)N1C[C@@H](c2ccc(Br)cc2)[C@H]1C(=O)Nc1cccc2cccnc12 [MY-1A, (2S,3R)-1-acryloyl-3-(4-bromophenyl)-N-(quinolin-8-yl)azetidine-2-carboxamide] | 54.25% | 32.5% |
| C=CC(=O)N1C[C@H](c2ccc(Br)cc2)[C@@H]1C(=O)Nc1cccc2cccnc12 [MY-1B, (2R,3S)-1-acryloyl-3-(4-bromophenyl)-N-(quinolin-8-yl)azetidine-2-carboxamide] | 73% | 39% |
| C=CC(=O)N1C[C@H](c2ccc(Br)cc2)[C@H]1C(=O)Nc1cccc2cccnc12 [MY-3A, (2S,3S)-1-acryloyl-3-(4-bromophenyl)-N-(quinolin-8-yl)azetidine-2-carboxamide] | 48% | 17.5% |
| C=CC(=O)N1C[C@H](c2ccc(Br)cc2)[C@H]1C(=O)Nc1cccc2cccnc12 [MY-3B, (2S,3S)-1-acryloyl-3-(4-bromophenyl)-N-(quinolin-8-yl)azetidine-2-carboxamide] | 69% | 68.5% |
